How the values were obtained:
Experiment in all cases: Example 2: alcohol ethoxylate adjuvants without glyphosate, visual % damage, tracksprayer 300 l/ha
Assay type in all cases: in vivo
Poa annua = test system: Poa annua
Description: (§1) The effect of different types of alcohol ethoxylate (branched—Genapol X-series, and unbranched—Genapol O-series, differing degrees of ethoxylation, see Table 3 below for more details), on unwanted vegetation (broadleaf weed and grass species), in the absence of glyphosate, was investigated and compared to untreated (water only) control weeds.
(§2) Troughs (measuring 16 cm by 13 cm by 5 cm) were filled with local field soil. Seeds of Veronica persica, Stellaria media, Trifolium repens and Poa annua were sown 24 days before application of test samples. Plants were grown in the glasshouse at 18 to 20° C. and 60% relative humidity. Application of alcohol ethoxylate test samples was carried out using a tracksprayer, spraying at a rate of 300 l/ha. Plants were kept in glasshouse and visual assessment of the estimated percentage damage to the plant was carried out 1, 7, and 14 days from application.
(§3) Damage was assessed as wilting, desiccation or any other kind of visual injury in comparison to the untreated control (water only).

Stellaria media = test system: Stellaria media
Description: as §1, §2, §3

Trifolium repens = test system: Trifolium repens
Description: as §1, §2, §3

Veronica persica = test system: Veronica persica
Description: as §1, §2, §3

With “Iso-tridecyl alcohol polyglycol ether with 2 moles of ethoxylation [GenapolX020]” as the substance, how does the “mean % damage 1 daa Poa annua” value (Poa annua; adjuvant 1% w/v) read?
The value was 0%.

And the “mean % damage 7 daa Poa annua” value (Poa annua; adjuvant 1% w/v)?
The value was 0%.

What about the “mean % damage 14 daa Poa annua” value (Poa annua; adjuvant 1% w/v) of the same substance?
The value was 0%.

What about the “mean % damage 1 daa Poa annua” value (Poa annua; adjuvant 1.5% w/v) of the same substance?
Its value is 0%.

What about the “mean % damage 7 daa Poa annua” value (Poa annua; adjuvant 1.5% w/v) of the same substance?
Its value is 5%.

What about the “mean % damage 14 daa Poa annua” value (Poa annua; adjuvant 1.5% w/v) of the same substance?
The value was 0%.

And the “mean % damage 1 daa Poa annua” value (Poa annua; adjuvant 2% w/v)?
The value was 0%.

What about the “mean % damage 7 daa Poa annua” value (Poa annua; adjuvant 2% w/v) of the same substance?
Its value is 5%.

What about the “mean % damage 14 daa Poa annua” value (Poa annua; adjuvant 2% w/v) of the same substance?
The value was 0%.

What about the “mean % damage 1 daa Poa annua” value (Poa annua; adjuvant 2.5% w/v) of the same substance?
The value was 0%.

What about the “mean % damage 7 daa Poa annua” value (Poa annua; adjuvant 2.5% w/v) of the same substance?
The value was 5%.

And the “mean % damage 14 daa Poa annua” value (Poa annua; adjuvant 2.5% w/v)?
The value was 0%.

And the “mean % damage 1 daa Stellaria media” value (Stellaria media; adjuvant 1% w/v)?
Its value is 0%.

And the “mean % damage 7 daa Stellaria media” value (Stellaria media; adjuvant 1% w/v)?
Its value is 0%.

What about the “mean % damage 14 daa Stellaria media” value (Stellaria media; adjuvant 1% w/v) of the same substance?
The value was 0%.

What about the “mean % damage 1 daa Stellaria media” value (Stellaria media; adjuvant 1.5% w/v) of the same substance?
The value was 0%.

And the “mean % damage 7 daa Stellaria media” value (Stellaria media; adjuvant 1.5% w/v)?
The value was 0%.

And the “mean % damage 14 daa Stellaria media” value (Stellaria media; adjuvant 1.5% w/v)?
Its value is 0%.

What about the “mean % damage 1 daa Stellaria media” value (Stellaria media; adjuvant 2% w/v) of the same substance?
The value was 0%.

And the “mean % damage 7 daa Stellaria media” value (Stellaria media; adjuvant 2% w/v)?
The value was 5%.

What about the “mean % damage 14 daa Stellaria media” value (Stellaria media; adjuvant 2% w/v) of the same substance?
Its value is 5%.

And the “mean % damage 1 daa Stellaria media” value (Stellaria media; adjuvant 2.5% w/v)?
Its value is 0%.

And the “mean % damage 7 daa Stellaria media” value (Stellaria media; adjuvant 2.5% w/v)?
The value was 5%.

And the “mean % damage 14 daa Stellaria media” value (Stellaria media; adjuvant 2.5% w/v)?
The value was 0%.

What about the “mean % damage 1 daa Trifolium repens” value (Trifolium repens; adjuvant 1% w/v) of the same substance?
The value was 0%.

What about the “mean % damage 7 daa Trifolium repens” value (Trifolium repens; adjuvant 1% w/v) of the same substance?
The value was 0%.

What about the “mean % damage 14 daa Trifolium repens” value (Trifolium repens; adjuvant 1% w/v) of the same substance?
Its value is 0%.

What about the “mean % damage 1 daa Trifolium repens” value (Trifolium repens; adjuvant 1.5% w/v) of the same substance?
The value was 5%.

And the “mean % damage 7 daa Trifolium repens” value (Trifolium repens; adjuvant 1.5% w/v)?
The value was 5%.

What about the “mean % damage 14 daa Trifolium repens” value (Trifolium repens; adjuvant 1.5% w/v) of the same substance?
The value was 0%.

And the “mean % damage 1 daa Trifolium repens” value (Trifolium repens; adjuvant 2% w/v)?
Its value is 10%.

What about the “mean % damage 7 daa Trifolium repens” value (Trifolium repens; adjuvant 2% w/v) of the same substance?
Its value is 5%.

And the “mean % damage 14 daa Trifolium repens” value (Trifolium repens; adjuvant 2% w/v)?
The value was 0%.

What about the “mean % damage 1 daa Trifolium repens” value (Trifolium repens; adjuvant 2.5% w/v) of the same substance?
Its value is 10%.

And the “mean % damage 7 daa Trifolium repens” value (Trifolium repens; adjuvant 2.5% w/v)?
Its value is 5%.

What about the “mean % damage 14 daa Trifolium repens” value (Trifolium repens; adjuvant 2.5% w/v) of the same substance?
The value was 10%.

What about the “mean % damage 1 daa Veronica persica” value (Veronica persica; adjuvant 1% w/v) of the same substance?
The value was 0%.

What about the “mean % damage 7 daa Veronica persica” value (Veronica persica; adjuvant 1% w/v) of the same substance?
Its value is 0%.

And the “mean % damage 14 daa Veronica persica” value (Veronica persica; adjuvant 1% w/v)?
The value was 0%.

What about the “mean % damage 1 daa Veronica persica” value (Veronica persica; adjuvant 1.5% w/v) of the same substance?
The value was 0%.

And the “mean % damage 7 daa Veronica persica” value (Veronica persica; adjuvant 1.5% w/v)?
Its value is 0%.

And the “mean % damage 14 daa Veronica persica” value (Veronica persica; adjuvant 1.5% w/v)?
The value was 0%.

What about the “mean % damage 1 daa Veronica persica” value (Veronica persica; adjuvant 2% w/v) of the same substance?
Its value is 5%.

What about the “mean % damage 7 daa Veronica persica” value (Veronica persica; adjuvant 2% w/v) of the same substance?
The value was 5%.

And the “mean % damage 14 daa Veronica persica” value (Veronica persica; adjuvant 2% w/v)?
The value was 5%.

What about the “mean % damage 1 daa Veronica persica” value (Veronica persica; adjuvant 2.5% w/v) of the same substance?
The value was 5%.

And the “mean % damage 7 daa Veronica persica” value (Veronica persica; adjuvant 2.5% w/v)?
The value was 5%.

What about the “mean % damage 14 daa Veronica persica” value (Veronica persica; adjuvant 2.5% w/v) of the same substance?
Its value is 5%.

Which “mean % damage 1 daa Poa annua” value (Poa annua; adjuvant 1% w/v) does the source give for “Oleyl alcohol polyglycol ether with 2 moles of ethoxylation [GenapolO020]” here?
Its value is 0%.

And the “mean % damage 7 daa Poa annua” value (Poa annua; adjuvant 1% w/v)?
The value was 0%.

And the “mean % damage 14 daa Poa annua” value (Poa annua; adjuvant 1% w/v)?
Its value is 0%.

And the “mean % damage 1 daa Poa annua” value (Poa annua; adjuvant 1.5% w/v)?
The value was 0%.

And the “mean % damage 7 daa Poa annua” value (Poa annua; adjuvant 1.5% w/v)?
Its value is 0%.

And the “mean % damage 14 daa Poa annua” value (Poa annua; adjuvant 1.5% w/v)?
Its value is 0%.

And the “mean % damage 1 daa Poa annua” value (Poa annua; adjuvant 2% w/v)?
Its value is 0%.

What about the “mean % damage 7 daa Poa annua” value (Poa annua; adjuvant 2% w/v) of the same substance?
Its value is 0%.

And the “mean % damage 14 daa Poa annua” value (Poa annua; adjuvant 2% w/v)?
The value was 0%.

What about the “mean % damage 1 daa Poa annua” value (Poa annua; adjuvant 2.5% w/v) of the same substance?
The value was 0%.

And the “mean % damage 7 daa Poa annua” value (Poa annua; adjuvant 2.5% w/v)?
Its value is 0%.

What about the “mean % damage 14 daa Poa annua” value (Poa annua; adjuvant 2.5% w/v) of the same substance?
The value was 0%.

And the “mean % damage 1 daa Stellaria media” value (Stellaria media; adjuvant 1% w/v)?
The value was 0%.

What about the “mean % damage 7 daa Stellaria media” value (Stellaria media; adjuvant 1% w/v) of the same substance?
The value was 0%.

What about the “mean % damage 14 daa Stellaria media” value (Stellaria media; adjuvant 1% w/v) of the same substance?
The value was 0%.

What about the “mean % damage 1 daa Stellaria media” value (Stellaria media; adjuvant 1.5% w/v) of the same substance?
Its value is 0%.

What about the “mean % damage 7 daa Stellaria media” value (Stellaria media; adjuvant 1.5% w/v) of the same substance?
The value was 0%.

What about the “mean % damage 14 daa Stellaria media” value (Stellaria media; adjuvant 1.5% w/v) of the same substance?
Its value is 0%.

What about the “mean % damage 1 daa Stellaria media” value (Stellaria media; adjuvant 2% w/v) of the same substance?
The value was 0%.

What about the “mean % damage 7 daa Stellaria media” value (Stellaria media; adjuvant 2% w/v) of the same substance?
The value was 0%.

What about the “mean % damage 14 daa Stellaria media” value (Stellaria media; adjuvant 2% w/v) of the same substance?
Its value is 0%.

What about the “mean % damage 1 daa Stellaria media” value (Stellaria media; adjuvant 2.5% w/v) of the same substance?
Its value is 0%.

And the “mean % damage 7 daa Stellaria media” value (Stellaria media; adjuvant 2.5% w/v)?
The value was 5%.

And the “mean % damage 14 daa Stellaria media” value (Stellaria media; adjuvant 2.5% w/v)?
The value was 0%.

What about the “mean % damage 1 daa Trifolium repens” value (Trifolium repens; adjuvant 1% w/v) of the same substance?
The value was 0%.

What about the “mean % damage 7 daa Trifolium repens” value (Trifolium repens; adjuvant 1% w/v) of the same substance?
The value was 0%.

And the “mean % damage 14 daa Trifolium repens” value (Trifolium repens; adjuvant 1% w/v)?
The value was 0%.

What about the “mean % damage 1 daa Trifolium repens” value (Trifolium repens; adjuvant 1.5% w/v) of the same substance?
Its value is 0%.

And the “mean % damage 7 daa Trifolium repens” value (Trifolium repens; adjuvant 1.5% w/v)?
The value was 0%.

What about the “mean % damage 14 daa Trifolium repens” value (Trifolium repens; adjuvant 1.5% w/v) of the same substance?
Its value is 0%.

What about the “mean % damage 1 daa Trifolium repens” value (Trifolium repens; adjuvant 2% w/v) of the same substance?
The value was 0%.

And the “mean % damage 7 daa Trifolium repens” value (Trifolium repens; adjuvant 2% w/v)?
The value was 0%.

What about the “mean % damage 14 daa Trifolium repens” value (Trifolium repens; adjuvant 2% w/v) of the same substance?
The value was 0%.

What about the “mean % damage 1 daa Trifolium repens” value (Trifolium repens; adjuvant 2.5% w/v) of the same substance?
The value was 0%.

What about the “mean % damage 7 daa Trifolium repens” value (Trifolium repens; adjuvant 2.5% w/v) of the same substance?
Its value is 10%.

What about the “mean % damage 14 daa Trifolium repens” value (Trifolium repens; adjuvant 2.5% w/v) of the same substance?
Its value is 0%.

And the “mean % damage 1 daa Veronica persica” value (Veronica persica; adjuvant 1% w/v)?
Its value is 0%.

What about the “mean % damage 7 daa Veronica persica” value (Veronica persica; adjuvant 1% w/v) of the same substance?
Its value is 0%.

What about the “mean % damage 14 daa Veronica persica” value (Veronica persica; adjuvant 1% w/v) of the same substance?
The value was 0%.

And the “mean % damage 1 daa Veronica persica” value (Veronica persica; adjuvant 1.5% w/v)?
Its value is 0%.

And the “mean % damage 7 daa Veronica persica” value (Veronica persica; adjuvant 1.5% w/v)?
The value was 0%.

What about the “mean % damage 14 daa Veronica persica” value (Veronica persica; adjuvant 1.5% w/v) of the same substance?
Its value is 0%.

What about the “mean % damage 1 daa Veronica persica” value (Veronica persica; adjuvant 2% w/v) of the same substance?
Its value is 0%.

What about the “mean % damage 7 daa Veronica persica” value (Veronica persica; adjuvant 2% w/v) of the same substance?
The value was 0%.

What about the “mean % damage 14 daa Veronica persica” value (Veronica persica; adjuvant 2% w/v) of the same substance?
Its value is 0%.

What about the “mean % damage 1 daa Veronica persica” value (Veronica persica; adjuvant 2.5% w/v) of the same substance?
Its value is 0%.

And the “mean % damage 7 daa Veronica persica” value (Veronica persica; adjuvant 2.5% w/v)?
Its value is 0%.

And the “mean % damage 14 daa Veronica persica” value (Veronica persica; adjuvant 2.5% w/v)?
Its value is 0%.

Reference: patent publication US20130252816A1, “HERBICIDAL COMPOSITION AND USE THEREOF” (Syngenta Crop Protection LLC, priority 2010, published 2013)
